Experimental data reported in ChEMBL document CHEMBL3112429, “Discovery of MK-1439, an orally bioavailable non-nucleoside reverse transcriptase inhibitor potent against a wide range of resistant mutant HIV viruses” (Bioorg Med Chem Lett, 2014).
≈ marks a conversion by molar mass, not a printed value. Blank lines part the entries; values can stand above or below the molecule they belong to. Calls of active or inactive are those of the source. No cut-off for these calls is given here.

Tests used:
[1] = Drug metabolism in human hepatocytes assessed as drug turnover at 1 uM after 60 mins; assay type: ADME, cell-based, Hepatocyte; conditions: read-out: Drug metabolism
[2] = Drug metabolism in human liver microsomes assessed as drug turnover at 1 uM after 30 mins; assay type: ADME; conditions: read-out: Drug metabolism
[3] = tested on: Human immunodeficiency virus; test: Antiviral activity against HIV harboring reverse transcriptase V106A/G109A/F227L mutant relative to control; assay type: functional, organism-based
[4] = tested on: Human immunodeficiency virus; test: Antiviral activity against HIV harboring reverse transcriptase Y188L mutant relative to control; assay type: functional, organism-based
Canis familiaris [5] = test: Dose normalized AUC (0 to 24 hrs) in Beagle dog at 1 mg/kg, po administered in 10% tween as ball-milled particles; assay type: ADME, organism-based, Canis lupus familiaris; set-up: dose 1 mg/kg, route oral; conditions: in vivo
[6] = Oral bioavailability in Beagle dog at 1 mg/kg administered in 10% tween as ball-milled particles; assay type: ADME, organism-based, Canis lupus familiaris; conditions: in vivo
[7] = Half life in Beagle dog at 0.5 mg/kg, iv administered in 60% PEG200 and 1 mg/kg, po administered in 10% tween as ball-milled particles; assay type: ADME, organism-based, Canis lupus familiaris; conditions: in vivo
[8] = Clearance in Beagle dog at 0.5 mg/kg, iv administered in 60% PEG200 and 1 mg/kg, po administered in 10% tween as ball-milled particles; assay type: ADME, organism-based, Canis lupus familiaris; conditions: in vivo
[9] = Volume of distribution in Beagle dog at 0.5 mg/kg, iv administered in 60% PEG200 and 1 mg/kg, po administered in 10% tween as ball-milled particles; assay type: ADME, organism-based, Canis lupus familiaris; conditions: in vivo
Rattus norvegicus [10] = test: Dose normalized AUC (0 to 24 hrs) in Sprague-Dawley rat at 1 mg/kg, iv administered in 60% PEG200; assay type: ADME, organism-based; set-up: dose 1 mg/kg, route intravenous; conditions: in vivo
[11] = Oral bioavailability in Sprague-Dawley rat at 5 mg/kg administered in 0.5% methocel as ball-milled particles; assay type: ADME, organism-based; conditions: in vivo
[12] = Half life in Sprague-Dawley rat at 1 mg/kg, iv administered in 60% PEG200 and 5 mg/kg, po administered in 0.5% methocel as ball-milled particles; assay type: ADME, organism-based; conditions: in vivo
[13] = Clearance in Sprague-Dawley rat at 1 mg/kg, iv administered in 60% PEG200 and 5 mg/kg, po administered in 0.5% methocel as ball-milled particles; assay type: ADME, organism-based; conditions: in vivo
[14] = Volume of distribution in Sprague-Dawley rat at 1 mg/kg, iv administered in 60% PEG200 and 5 mg/kg, po administered in 0.5% methocel as ball-milled particles; assay type: ADME, organism-based; conditions: in vivo
[15] = tested on: Human immunodeficiency virus; test: Antiviral activity against HIV harboring reverse transcriptase K103N/Y181C double mutant infected in human MT4 cells assessed as inhibition of viral infection in presence of 50% normal human serum; assay type: functional; conditions: Human immunodeficiency virus 1, MT4
[16] = tested on: Human immunodeficiency virus; test: Antiviral activity against HIV harboring reverse transcriptase Y181C mutant infected in human MT4 cells assessed as inhibition of viral infection in presence of 50% normal human serum; assay type: functional; conditions: Human immunodeficiency virus 1, MT4
[17] = tested on: Human immunodeficiency virus; test: Antiviral activity against HIV harboring reverse transcriptase K103N mutant infected in human MT4 cells assessed as inhibition of viral infection in presence of 50% normal human serum; assay type: functional; conditions: Human immunodeficiency virus 1, MT4
[18] = Inhibition of HIV wild-type reverse transcriptase by electrochemiluminescence assay; set-up: species or system Human immunodeficiency virus
[19] = tested on: Human immunodeficiency virus; test: Antiviral activity against wild-type HIV infected in human MT4 cells assessed as inhibition of viral infection in presence of 50% normal human serum; assay type: functional; conditions: Human immunodeficiency virus 1, MT4
[20] = Aqueous solubility of the compound in PBS buffer by light scattering assay; assay type: physicochemical
[21] = Solubility of the compound in fasted simulated intestinal fluid; assay type: ADME
[22] = Aqueous equilibrium solubility of the compound at pH 8 after 24 hrs incubated in absence of light by HPLC analysis; assay type: physicochemical; conditions: aqueous medium
[23] = Aqueous equilibrium solubility of the compound at pH 4 after 24 hrs incubated in absence of light by HPLC analysis; assay type: physicochemical; conditions: aqueous medium
Canis familiaris [24] = test: Dose normalized AUC (0 to 24 hrs) in Beagle dog at 1 mg/kg, po administered in 0.5% methocel as ball-milled particles; assay type: ADME, organism-based, Canis lupus familiaris; set-up: dose 1 mg/kg, route oral; conditions: in vivo
[25] = Oral bioavailability in Beagle dog at 1 mg/kg administered in 0.5% methocel as ball-milled particles; assay type: ADME, organism-based, Canis lupus familiaris; conditions: in vivo
[26] = Half life in Beagle dog at 0.5 mg/kg, iv administered in 80% PEG200 and 1 mg/kg, po administered in 0.5% methocel as ball-milled particles; assay type: ADME, organism-based, Canis lupus familiaris; conditions: in vivo
[27] = Clearance in Beagle dog at 0.5 mg/kg, iv administered in 80% PEG200 and 1 mg/kg, po administered in 0.5% methocel as ball-milled particles; assay type: ADME, organism-based, Canis lupus familiaris; conditions: in vivo
[28] = Volume of distribution in Beagle dog at 0.5 mg/kg, iv administered in 80% PEG200 and 1 mg/kg, po administered in 0.5% methocel as ball-milled particles; assay type: ADME, organism-based, Canis lupus familiaris; conditions: in vivo
Rattus norvegicus [29] = test: Dose normalized AUC (0 to 24 hrs) in Sprague-Dawley rat at 1 mg/kg, iv administered in 80% PEG200; assay type: ADME, organism-based; set-up: dose 1 mg/kg, route intravenous; conditions: in vivo
[30] = Half life in Sprague-Dawley rat at 1 mg/kg, iv administered in 80% PEG200 and 5 mg/kg, po administered in 0.5% methocel as ball-milled particles; assay type: ADME, organism-based; conditions: in vivo
[31] = Clearance in Sprague-Dawley rat at 1 mg/kg, iv administered in 80% PEG200 and 5 mg/kg, po administered in 0.5% methocel as ball-milled particles; assay type: ADME, organism-based; conditions: in vivo
[32] = Volume of distribution in Sprague-Dawley rat at 1 mg/kg, iv administered in 80% PEG200 and 5 mg/kg, po administered in 0.5% methocel as ball-milled particles; assay type: ADME, organism-based; conditions: in vivo
[33] = Elimination half life in Sprague-Dawley rat at 1 mg/kg, iv administered in 60% PEG200; assay type: ADME, organism-based; set-up: dose 1 mg/kg, route intravenous; conditions: in vivo, read-out: beta t1/2 (converted)
[34] = Clearance in Sprague-Dawley rat at 5 mg/kg, po administered in methocel suspension and 1 mg/kg, iv administered in 60% PEG200; assay type: ADME, organism-based; conditions: in vivo
[35] = Oral bioavailability in Sprague-Dawley rat at 5 mg/kg administered in methocel suspension; assay type: ADME, organism-based; conditions: in vivo
[36] = Aqueous equilibrium solubility of the compound after 24 hrs incubated in absence of light by HPLC analysis; assay type: physicochemical; conditions: buffer

Compound: Cn1c(Cn2ccc(C(F)(F)F)c(Oc3cc(Cl)cc(C#N)c3)c2=O)n[nH]c1=O [DORAVIRINE]
metabolised at 1 h, 1 µM [1]: < 10%
metabolised at 0.5 h, 1 µM [2]: < 10%
Activity [3]: Active
Activity [4]: Active
AUC/dose (Canis familiaris [5]): 44 µM·h
bioavailability [6]: 52%
half-life [7]: 37 h
clearance [8]: 0.36 mL/min/kg
Vd [9]: 1.2 L/kg
AUC/dose (Rattus norvegicus [10]): 3.9 µM·h
bioavailability [11]: 57%
half-life [12]: 4.4 h
clearance [13]: 5.4 mL/min/kg
Vd [14]: 2.3 L/kg
IC95 [15]: 54 nM
IC95 [16]: 25 nM
IC95 [17]: 42 nM
IC50 [18]: 11 nM
IC95 [19]: 19 nM

Compound: CSc1ccn(Cc2n[nH]c3ncccc23)c(=O)c1Oc1cc(Cl)cc(C#N)c1
IC95 [15]: 33 nM
IC50 [18]: 9 nM
IC95 [19]: 15 nM

Compound: CC(F)(F)c1ccn(Cc2n[nH]c3ncccc23)c(=O)c1Oc1cc(Cl)cc(C#N)c1
IC95 [15]: 44 nM
IC50 [18]: 5 nM
IC95 [19]: 14 nM

Compound: N#Cc1cc(Cl)cc(Oc2c(C(F)(F)F)ccn(Cc3n[nH]c4ccccc34)c2=O)c1
IC95 [15]: 186 nM
IC50 [18]: 1 nM
IC95 [19]: 53 nM

Compound: Cc1nc(C)c(Cn2ccc(C(F)(F)F)c(Oc3cc(Cl)cc(C#N)c3)c2=O)s1
IC50 [18]: 11 nM
IC95 [19]: > 120 nM

Compound: Cc1cc(/C=C/C#N)cc(C)c1Nc1ccnc(Nc2ccc(C#N)cc2)n1 [RILPIVIRINE]
IC95 [15]: 370 nM
IC95 [16]: 120 nM
IC95 [17]: 44 nM
IC50 [18]: 1 nM
IC95 [19]: 36 nM

Compound: N#Cc1cc(Cl)cc(Oc2c(C(F)(F)F)ccn(Cc3n[nH]c4ncccc34)c2=O)c1
solubility [21]: 1.3 µg/mL (≈ 2.92 µM)
solubility thermodynamic at 24 h [22]: < 0.1 µg/mL
solubility thermodynamic at 24 h [23]: < 0.1 µg/mL
AUC/dose (Canis familiaris [24]): 1.7 µM·h
bioavailability [25]: 9%
half-life [26]: 10 h
clearance [27]: 1.8 mL/min/kg
Vd [28]: 1.5 L/kg
AUC/dose (Rattus norvegicus [29]): 0.25 µM·h
bioavailability [11]: 15%
half-life [30]: 7 h
clearance [31]: 15 mL/min/kg
Vd [32]: 8.8 L/kg
half-life [33]: 7 h
clearance [34]: 18 mL/min/kg
bioavailability [35]: 13%
solubility kinetic [20]: 1.1 µM (≈ 0.49 µg/mL)
solubility [36]: 0.0002 µg/mL (≈ 0.000449 µM)
IC95 [15]: 70 nM
IC95 [16]: 60 nM
IC95 [17]: 24 nM
IC50 [18]: 3 nM
IC95 [19]: 17 nM

Compound: N#Cc1cc(Cl)cc(Oc2c(C(F)(F)F)ccn(Cc3n[nH]c4nc(C(N)=O)ccc34)c2=O)c1
IC50 [18]: 7 nM
IC95 [19]: 21 nM

Compound: N#Cc1cc(Cl)cc(Oc2c(C(F)(F)F)ccn(Cc3n[nH]c4cnccc34)c2=O)c1
IC95 [15]: 92 nM
IC50 [18]: 6 nM
IC95 [19]: 29 nM

Now from value to molecule, other results behind:

IC50 [18]: 300 nM
Compound: Cn1ccnc1Cn1ccc(C(F)(F)F)c(Oc2cc(Cl)cc(C#N)c2)c1=O

solubility kinetic [20]: 51 µM (≈ 21 µg/mL)
IC50 [18]: 50 nM
Compound: N#Cc1cc(Cl)cc(Oc2c(C(F)(F)F)ccn(Cc3n[nH]c(=O)[nH]3)c2=O)c1

IC50 [18]: 21 nM
Compound: CCn1c(Cn2ccc(C(F)(F)F)c(Oc3cc(Cl)cc(C#N)c3)c2=O)n[nH]c1=O
IC95 [19]: > 120 nM

IC50 [18]: 140 nM
Compound: Cn1nccc1Cn1ccc(C(F)(F)F)c(Oc2cc(Cl)cc(C#N)c2)c1=O

IC50 [18]: 16 nM
Compound: Cc1ncsc1Cn1ccc(C(F)(F)F)c(Oc2cc(Cl)cc(C#N)c2)c1=O
IC95 [19]: 100 nM
